In US7182965B2, “Soluble composition containing sporopollenin and the use thereof” (priority 2002, dated 2007):

Tested on: skin
Assay: Skin compatibility, 48 h occlusive patch test, modified Draize evaluation
Details: 1% in water, 48 hours under occlusion, 50 test subjects
Experimental: In this procedure, the GLP Guidelines and the recommendations of the COLIPA work group (Walker A. P. et al.: Test Guidelines for Assessment of Skin Compatibility of Cosmetic Finished Products in Man, Food and Chemical Toxicology 34, 1996, pages 651 to 660) were observed.
The model noxious substance sodium lauryl sulfate at a concentration of 1% in water served as the positive control. Water itself served as the negative control.
The evaluation of the test reaction was carried out after 48 and 72 hours in accordance with the modified Draize test.

Structure (SMILES): CCCCCCCCCCCCOS(=O)(=O)[O-].[Na+] [SDS, sodium lauryl sulfate]
- positive reaction, number of test subjects: 14 test subjects
